From patent US20080026996A1, “Selective Vpac2 Receptor Reptide Agonists” (ELI LILLY AND COMPANY, priority 2004, published 2008)
Where no end group is shown, it is not given here. [ ]: non-standard residue; d: D form. The star is where a group is joined. hArg = N=C(N)NCCCC[C@H](N)C(=O)O; Nle = CCCC[C@H](N)C(=O)O; Hexanoyl = CCCCCC(=O)*; Aib = CC(C)(N)C(=O)O

Legend:
[1] = target: T1, human VPAC2 (Homo sapiens, UniProt P41587); assay: Alpha screen cAMP in vitro potency, human VPAC2 receptor; format: cell-based; conditions: cAMP generation; single result from two analyses performed in a single run; read-out: Human VPAC2 Receptor: Alpha Screen EC50
T1 construct: expressed in transfected cells
T1 sequence (P41587 24-438): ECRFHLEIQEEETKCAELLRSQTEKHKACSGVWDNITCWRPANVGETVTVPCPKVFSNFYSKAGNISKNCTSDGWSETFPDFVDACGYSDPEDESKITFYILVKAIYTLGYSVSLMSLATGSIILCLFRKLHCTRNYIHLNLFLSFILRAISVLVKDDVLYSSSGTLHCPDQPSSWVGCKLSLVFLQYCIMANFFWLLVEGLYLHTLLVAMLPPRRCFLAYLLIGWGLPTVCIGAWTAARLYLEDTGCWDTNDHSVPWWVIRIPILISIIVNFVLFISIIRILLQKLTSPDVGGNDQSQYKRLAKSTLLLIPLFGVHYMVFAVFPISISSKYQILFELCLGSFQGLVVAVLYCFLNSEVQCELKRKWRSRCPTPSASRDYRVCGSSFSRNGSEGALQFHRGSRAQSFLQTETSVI
Method in brief: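 This followed a 60 min stimulation of 50,000 enzyme-free-dissociated cells per point with acceptor beads in stimulation buffer.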

[2] = target: T1, human VPAC2; assay: Filter binding assay, membranes of stable VPAC2 cell line, 125I-labeled VIP tracer (Table 2); conditions: read-out: Human VPAC2 Receptor Binding
Method in brief: (§1)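 Membranes 2.5 μg/well; tracer ~40000 cpm; buffer 25 mM HEPES pH 7.4, 0.5% protease-free BSA; 1 h incubation, shaking. Glass-fibre filtration (0.5% polyethyleneamine presoak, 0.2% BSA block), 3× HEPES wash, dry 1 h at 60° C, scintillation count.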

[3] = target: T2, human VPAC1 (Homo sapiens, UniProt P32241); assay: Filter binding assay, membranes of cells transiently transfected with human VPAC1, 125I-labeled VIP tracer (Table 2); parameters: expressed in transfected cells; conditions: read-out: Human VPAC1 Receptor Binding
T2 sequence (P32241 31-457): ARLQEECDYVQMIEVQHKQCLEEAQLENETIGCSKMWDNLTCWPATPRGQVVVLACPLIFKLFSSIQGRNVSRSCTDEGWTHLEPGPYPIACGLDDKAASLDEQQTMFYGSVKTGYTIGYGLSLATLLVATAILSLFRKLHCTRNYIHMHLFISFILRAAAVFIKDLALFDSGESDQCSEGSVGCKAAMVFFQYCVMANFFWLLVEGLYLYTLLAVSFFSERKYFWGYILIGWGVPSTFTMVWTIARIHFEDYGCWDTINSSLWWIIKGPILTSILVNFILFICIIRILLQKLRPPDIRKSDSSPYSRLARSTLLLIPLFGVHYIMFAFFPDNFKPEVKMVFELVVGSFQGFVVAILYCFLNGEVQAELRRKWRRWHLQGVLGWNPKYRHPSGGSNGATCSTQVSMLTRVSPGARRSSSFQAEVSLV
Method in brief: as §1

[4] = target: T3, human PAC1 (Homo sapiens, UniProt P41586); assay: Filter binding assay, membranes of cells transiently transfected with human PAC1, 125I-labeled PACAP-27 tracer (Table 2); parameters: expressed in transfected cells; conditions: read-out: Human PAC1 Receptor Binding
T3 sequence (P41586 21-468): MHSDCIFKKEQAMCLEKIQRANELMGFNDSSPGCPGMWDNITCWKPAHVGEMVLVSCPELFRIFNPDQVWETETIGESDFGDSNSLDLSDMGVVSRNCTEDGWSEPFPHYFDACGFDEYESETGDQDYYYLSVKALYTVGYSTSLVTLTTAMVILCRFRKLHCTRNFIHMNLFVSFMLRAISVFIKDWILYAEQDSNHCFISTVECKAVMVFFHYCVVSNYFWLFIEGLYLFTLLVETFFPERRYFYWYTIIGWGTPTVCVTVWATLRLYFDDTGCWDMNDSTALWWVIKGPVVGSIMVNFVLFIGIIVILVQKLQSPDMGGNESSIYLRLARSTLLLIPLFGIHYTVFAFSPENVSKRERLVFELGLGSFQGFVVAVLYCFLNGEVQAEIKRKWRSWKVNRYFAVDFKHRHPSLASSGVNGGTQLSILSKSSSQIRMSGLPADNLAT
Method in brief: as §1

[5] = target: T3, human PAC1; assay: DiscoveRx cAMP in vitro potency, CHO-PO cells transiently transfected with human PAC1 receptor; format: cell-based; parameters: expressed in transfected cells; host or cells: CHO-PO, transient (Lipofectamine); conditions: cAMP generation; mean of two independent runs; read-out: Human PAC1 Receptor: DiscoveRx EC50
Description: Also, the cells are washed twice. The cells are incubated in assay buffer plus IBMX for 15 minutes at room temperature. […] The stimuli are present for 30 minutes. Then, the assay buffer is gently removed. […] At day 3, the assay described above for the VPAC2 receptor cell line is performed.

[6] = Rat serum stability studies (remaining active peptide by DiscoveRx cAMP on CHO-VPAC2 cells); format: in vitro ADME
Method in brief: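 EC50 from a DiscoveRx cAMP read-out on CHO-VPAC2 cells indexes how much peptide stays active after 18 h in rat serum at 37° C without aprotinin, against an aprotinin-protected 4° C aliquot.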

[7] = target: T4, rat VPAC2 receptor (Rattus norvegicus, UniProt P35000); assay: DiscoveRx in vitro potency, CHO-PO cells transiently transfected with rat VPAC 2 receptor DNA; format: cell-based; parameters: expressed in transfected cells; host or cells: CHO-PO, transient
T4 sequence (P35000 23-437): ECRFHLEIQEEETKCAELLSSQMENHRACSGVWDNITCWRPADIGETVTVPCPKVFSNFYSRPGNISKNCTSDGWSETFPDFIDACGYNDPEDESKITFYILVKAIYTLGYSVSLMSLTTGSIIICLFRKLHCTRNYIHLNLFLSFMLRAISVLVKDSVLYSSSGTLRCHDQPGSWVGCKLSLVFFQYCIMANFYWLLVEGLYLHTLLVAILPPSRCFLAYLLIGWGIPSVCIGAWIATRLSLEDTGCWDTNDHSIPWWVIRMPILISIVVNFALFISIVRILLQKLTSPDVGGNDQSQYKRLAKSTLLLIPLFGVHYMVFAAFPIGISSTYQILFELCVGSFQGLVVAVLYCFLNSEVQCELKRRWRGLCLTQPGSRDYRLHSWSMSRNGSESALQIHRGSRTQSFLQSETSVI
Description: Also, the cells are washed twice. […] The stimuli are present for 30 minutes. Then, the assay buffer is gently removed.

| Compound | EC50 [1] | IC50 [2] | IC50 [3] | IC50 [4] | EC50 [5] | Rat Serum Stability (Estimated purity in % after 72 hours) [6] | Rat Serum Stability (estimated purity in % after 18 hours) [6] | EC50 [7] |
| --- | --- | --- | --- | --- | --- | --- | --- | --- |
| HSDAVFTDNYTRLRKQVAAKKYLQSIKNKRYGGPSSGAPPPS [Agonist P6] | 3.19 nM | 2.58 nM | 195 nM | 334 nM | > 40 nM | – | – | – |
| HLDAVFTDNYTRLRKQVAAKKYLQSIKNKRYGGPSSGAPPPS [Agonist P46] | – | – | – | – | > 1000 nM | – | – | – |
| HSDFVFTDNYTRLRKQVAAKKYLQSIKNKRYGGPSSGAPPPS [Agonist P52] | – | – | – | – | > 1000 nM | – | – | – |
| HSDTVFTDNYTRLRKQVAAKKYLQSIKNKRYGGPSSGAPPPS [Agonist P54] | – | – | – | – | > 1000 nM | – | – | – |
| H-HSDAVFTDNYTRLRKQVAAKKYLQSIQNKRYGGPSSGAPPPS [Agonist P74] | – | – | – | – | 145 nM | – | – | – |
| HSDYVFTDNYTRLRKQVAAKKYLQSIKNKRYGGPSSGAPPPS [Agonist P51] | – | – | – | – | > 1000 nM | – | – | – |
| HSDAVFTDNYTRLRKQVAAKKYLQSIKNRRYGGPSSGAPPPS [Agonist P25] | – | 1.65 nM | 233 nM | – | 137 nM | – | – | – |
| H-HSDAVFTDNYTRLRKQVAAKKYLQSIKNKRYC [Agonist P37] | – | – | – | – | 35.6 nM | – | – | – |
| CCCCCC(=O)N[C@@H](Cc1c[nH]cn1)C(=O)N[C@@H](CO)C(=O)N[C@@H](CC(=O)O)C(=O)N[C@@H](C)C(=O)N[C@H](C(=O)N[C@@H](Cc1ccccc1)C(=O)N[C@H](C(=O)N[C@@H](CC(=O)O)C(=O)N[C@@H](CC(N)=O)C(=O)N[C@@H](Cc1ccc(O)cc1)C(=O)N[C@H](C(=O)N[C@@H](CCCN)C(=O)N[C@@H](CC(C)C)C(=O)N[C@@H](CCCNC(=N)N)C(=O)NC(C)(C)C(=O)N[C@@H](CCC(N)=O)C(=O)N[C@H](C(=O)N[C@@H](C)C(=O)N[C@@H](C)C(=O)NC(C)(C)C(=O)N[C@@H](CCCCN)C(=O)N[C@@H](Cc1ccc(O)cc1)C(=O)N[C@@H](CC(C)C)C(=O)N[C@@H](CCC(N)=O)C(=O)N[C@@H](CO)C(=O)N[C@H](C(=O)N[C@@H](CCCN)C(=O)N[C@@H](CC(N)=O)C(=O)N[C@@H](CCCN)C(=O)NCC(=O)NCC(=O)N1CCC[C@H]1C(=O)N[C@@H](CO)C(=O)N[C@@H](CO)C(=O)NCC(=O)N[C@@H](C)C(=O)N1CCC[C@H]1C(=O)N1CCC[C@H]1C(=O)N1CCC[C@H]1C(=O)N[C@@H](CO)C(=O)O)[C@@H](C)CC)C(C)C)[C@@H](C)O)[C@@H](C)O)C(C)C [Agonist P326] | 0.21 nM | 0.33 nM | > 3000 nM | > 25000 nM | – | 49.6% | 90.10% | 0.09 nM |
| Hexanoyl-HSDAVFTDNYTRLRKQVAAQKYLQSIKNKRYGGPSSGAPPPS [Agonist P150] | 0.18 nM | 0.25 nM | 444 nM | 916 nM | – | – | 0.21% | 0.1 nM |
| Hexanoyl-HSDAVFTDNYTRLRQQVAAKKYLQSIKNKRYGGPSSGAPPPS [Agonist P177] | 0.21 nM | 0.7 nM | 128 nM | 276 nM | – | – | 0.49% | 0.1 nM |
| Hexanoyl-HSDAVFTDNYTRL[hArg]KQVAAKKYLQSIKNKRYGGPSSGAPPPS [Agonist P305] | 0.17 nM | 0.17 nM | 268 nM | 171 nM | – | – | 0.23% | 0.04 nM |
| HSDAVFTDNYTRLRKQVAAKKYLQSIKN[hArg]RYGGPSSGAPPPS [Agonist P24] | – | 1.97 nM | 198 nM | – | > 100 nM | – | – | – |
| Hexanoyl-HSDAVFTDNYTRLR[Aib]QVAAKKYLQSIKNKRYGGPSSGAPPPS [Agonist P168] | 0.27 nM | 0.21 nM | 234 nM | 538 nM | – | – | 10.47% | 0.05 nM |
| HSDAWFTDNYTRLRKQVAAKKYLQSIKNKRYGGPSSGAPPPS [Agonist P69] | – | – | – | – | 104 nM | – | – | – |
| HGDAVFTDNYTRLRKQVAAKKYLQSIKNKRYGGPSSGAPPPS [Agonist P43] | – | – | – | – | 104 nM | – | – | – |
| Hexanoyl-HSDAVFTDNYTRLR[Aib]Q[Nle]AA[Aib]KYLQSIKNKRYGGPSSGAPPPS [Agonist P325] | 0.24 nM | 0.4 nM | > 3000 nM | > 25000 nM | – | – | 13.13% | 0.04 nM |
| Hexanoyl-HSDAVFTDNYTRLRKQVAAK[Aib]YLQSIKNKRYGGPSSGAPPPS [Agonist P170] | 0.18 nM | 0.34 nM | 275 nM | 200 nM | – | – | 0.31% | 0.15 nM |
| HSDAVFTDNWTRLRKQVAAKKYLQSIKNKRYGGPSSGAPPPS [Agonist P27] | – | – | – | – | > 100 nM | – | – | – |
| HSDAFFTDNYTRLRKQVAAKKYLQSIKNKRYGGPSSGAPPPS [Agonist P58] | – | – | – | – | 35.6 nM | – | – | – |
| HSDAVFTDNYTRLRKQVAASKYLQSIKNKRYGGPSSGAPPPS [Agonist P21] | 11.6 nM | 4.94 nM | 385 nM | – | > 100 nM | – | – | – |
| Hexanoyl-HSDAVFTDNYTRLR[Aib]QLAA[Aib]KYLQSIKNKRYGGPSSGAPPPS [Agonist P291] | 0.36 nM | 0.45 nM | > 3000 nM | > 25000 nM | – | – | 28.09% | 0.06 nM |
